Laboratory results: US4003589A, “Carbonless copying paper” (Kureha Kagaku Kogyo Kabushiki Kaisha, priority 1970, dated 1977)

What was measured:
[1] = background; cited from earlier work
Viscosity of the solvent = assay type: physicochemical; conditions: 100° F; Table 2
Color of the solvent = assay type: physicochemical; conditions: Table 2, solvent
[2] = Acute toxicity (LD50, per oral and cutaneous); assay type: in vivo, Strain ICR-JCL Mice; conditions: ICR-JCL mice
Text: Used as test animal are Strain ICR-JCL Mice (Nippon Clea Co., Ltd.)

Row | Viscosity (Viscosity of the solvent) [cst] | Molecule | accumulation in the bodies of many animals [1] | Color (Color of the solvent) | LD50 Cutaneous [2] [mL/kg] | LD50 Per Oral [2] [mL/kg] | biodegradability [1]
1 | – | ClC1C(Cl)C(Cl)C(Cl)C(Cl)C1Cl (centres unmarked) [BHC] | accumulates | – | – | – | –
2 | – | Clc1ccc(C(c2ccc(Cl)cc2)C(Cl)(Cl)Cl)cc1 [DDT] | accumulates | – | – | – | –
3 | 3.6 | diethylnaphthalene [Diethyl-] | – | None | – | – | –
4 | 5.1 | dimethylpropylnaphthalene [Dimethyl propyl] | – | None | – | – | –
5 | 5.2 | ethylpropylnaphthalene [Ethyl propyl] | – | None | – | – | –
6 | 5.0 | methylbutylnaphthalene [Methyl Butyl] | – | None | – | – | –
7 | – | polychlorobiphenyl [PCB, reference compound] | accumulates | None | 1.25 | 1.7 | low biodegradability

Row | Molecule | Viscosity (Viscosity of the solvent) [cst] | accumulation in the bodies of many animals [1] | Color (Color of the solvent) | LD50 Cutaneous [2] [mL/kg] | LD50 Per Oral [2] [mL/kg] | biodegradability [1]
8 | butylnaphthalene [Butyl-naphthalene] | 4.2 | – | None | – | – | –
9 | dipropylnaphthalene | 8.5 | – | None | ≥ 30 | 9.5 | –
10 | methylpropylnaphthalene [Methyl propyl] | 4.0 | – | None | – | – | –
